Assay results published in patent US8518956B2, “1-(1-(2-ethoxyethyl)-3-ethyl-7-(4-methylpyridin-2-ylamino)-1H-pyrazolo[4,3-d]pyrimidin-5-yl) piperidine-4-carboxylic acid and salts thereof” (priority 2005, dated 2013).

Assays:
PDE5 enzyme = molecular target: T1, PDE5 enzyme (Homo sapiens, UniProt O76074); experiment: Method 1A: Alternative Human Platelet PDE5 Enzyme Inhibition Scintillation Proximity Assay; type: biochemical; conditions: METHOD 1a: PDE5 IC50, Table D, WO2004096810 examples
T1 construct: The PDE5 enzyme isolated from human platelets; from tissue; host or cells: human platelets
Method: Method 1A: Alternative Human Platelet PDE5 Enzyme Inhibition Scintillation Proximity Assay
PDE5 IC50 Assay: 96-Well Microtiter Plate Format
• Buffer A: 20 mM Tris-HCl, 5 mM MgCl2, pH 7.4 • Buffer B: 2 mg/ml BSA in Buffer A (enzyme buffer) • cGMP substrate: Final concentration of 50 nM in assay The amount of ^3H-labeled substrate added depends upon the specific activity of [^3H]cGMP, and it is diluted in Buffer A. • PDE enzyme: Prepared in Buffer B. The dilution factor is determined by enzyme activity. • SPA beads: 4 mg/ml suspension prepared in dH2O.
Stocks of standard and test compound are prepared at 2 mM in 100% DMSO. […] 27 μl of Buffer A are added to the wells of the assay plates. From the dilution plate, 3 μl of diluted compound is delivered in duplicate or 3 μl of 100% DMSO (for positive and negative controls) are added. 30 μl of enzyme are added. For the negative control wells, Buffer B is substituted in place of the enzyme. 30 μl of labeled substrate are added to all wells.
After incubating for 60 minutes at room temperature, the reaction is stopped with the addition of 30 μl of the yttrium silicate beads. These beads are dense and require constant agitation while being added to the plate. The plates are sealed and shaken on a plate shaker for fifteen minutes to allow the beads to bind the GMP product.
After allowing the beads to settle for 30 minutes, plates are read on a NXT TopCount scintillation counter and the data are analyzed as follows. Percent inhibition values are calculated using the means of the 0% and 100% controls on each plate. The estimates of the 4-parameters of the logistic, sigmoid dose-response model are then calculated using the well-level percent inhibition value for the compound.

PDE11 enzyme = molecular target: T2, PDE11 enzyme (Homo sapiens, UniProt Q9HCR9, DUP921-921); experiment: Method 3: Human Recombinant PDE11 Enzyme Inhibition Scintillation Proximity Assay (SPA); type: biochemical; conditions: Table F, WO2004096810 examples; read-out: METHOD 3: PDE11 IC50
T2 construct: FLAG (N); made in house; host or cells: Sf9 insect cells (baculovirus, pFastBac)
T2 sequence (Q9HCR9 with tags, fused parts or gaps DUP921-921 limits assumed): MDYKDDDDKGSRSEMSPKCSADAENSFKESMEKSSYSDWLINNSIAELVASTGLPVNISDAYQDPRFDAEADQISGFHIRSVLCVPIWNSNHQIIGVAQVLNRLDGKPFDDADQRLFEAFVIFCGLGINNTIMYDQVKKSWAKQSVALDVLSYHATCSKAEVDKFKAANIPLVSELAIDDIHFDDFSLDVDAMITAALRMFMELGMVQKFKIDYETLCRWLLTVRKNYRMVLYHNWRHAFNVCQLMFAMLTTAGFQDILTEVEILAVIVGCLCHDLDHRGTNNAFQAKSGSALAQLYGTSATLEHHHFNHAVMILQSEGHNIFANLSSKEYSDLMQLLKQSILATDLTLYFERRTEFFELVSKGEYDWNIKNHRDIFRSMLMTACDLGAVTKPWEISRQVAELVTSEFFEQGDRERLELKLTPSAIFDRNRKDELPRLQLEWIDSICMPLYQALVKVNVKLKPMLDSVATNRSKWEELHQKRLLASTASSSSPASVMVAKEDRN
Method: Method 3: Human Recombinant PDE11 Enzyme Inhibition Scintillation Proximity Assay (SPA)
PDE11 Expression and Purification:
Incubate at 27° C. with 220 rpm shaking for 48 hours. Harvest the infected cells by pelleting at 2000 rpm for 10 minutes at 4° C. Store the infected cell pellet at −80° C. until ready for purification. Resuspend the thawed cell pellets to 1×10^7 cells/ml (=20 ml buffer consisting of 20 mM Hepes (pH7.2), 1 mM EDTA, 20 mM sucrose, 150 mM NaCl and protease inhibitor tablets). Mix thoroughly and allow to stand on ice for 10 minutes. Sonicate for 5×5 seconds, on ice. Spin the mixture at 12,000 rpm for 10 minutes at 4° C. in SS34. Store the insoluble pellet at −80° C., and proceed to the purification of the soluble material. • (b) Purification: Prepare the column (1.0 cm diameter, Kontes) by rinsing the empty column twice with TBS. Then mix beads (Anti-FLAG M2 Agarose, Sigma) with TBS and add to the column—allow the beads to settle. Wash the column with 3 column volumes of 0.1M glycine (pH3.5). […] Apply the extract to the column and allow the extract to enter by gravity flow. Reapply the flow-through. Wash the column with 15 column volumes of TBS. Elute the protein with 5×1 ml aliquots of FLAG peptide (Sigma) (i.e., 100 ug/ml in TBS). Elute the remaining protein with 1 ml 0.1M glycine, and immediately add 25 ul 1M Tris pH8 to neutralize. Method 3A: Alternative Human Recombinant PDE11 Enzyme Inhibition Scintillation Proximity Assay (SPA)

[1] = test system: Chinese hamster ovary (CHO) cells; experiment: Method 7: Micronucleus Assay; type: cell-based; set-up: key: Negative: A negative result identifies no genotoxic hazard defined by the assays specific endpoint; Positive: A positive result identifies a genotoxic hazard defined by the assays specific endpoint; Equivocal: fails to display a negative or positive result as defined by established evaluation criteria; Inconclusive: the test compound has been evaluated in an invalid assay test; conditions: in vitro, with and without S9
Method: Method 7: Micronucleus Assay
An in vitro micronucleus assay can be used to determine the mutagenic potential of a test compound. This assay detects chromosome abnormalities resulting from exposure to a test compound by measuring the formation of small membrane-bound DNA fragments such as micronuclei in the cytoplasm of interphase cells.
The assay is conducted using Chinese hamster ovary (CHO) cells under different test conditions in the absence and presence of metabolic activation. Concordance in outcomes between this screening assay and in vitro cytogenetics is around 85%. Direct (−S9) testing is conducted using 24 hour or 3 hour continuous treatments, whereas testing with metabolic activation (+S9) involves a 3 hour treatment. Clastogenicity is indicated by an increase in numbers of micronucleated cells in the first interphase after exposure (in cytokinesis-blocked binucleated cells). The results are compared to the level of cytotoxicity (measured by the proportion of binucleated cells) a test compound produces. […] A test compound displaying a negative response has not fulfilled specific evaluation criteria for the assay which may include one or both of the following: 1) a reproducible concentration dependent increase in the specific assay endpoint when compared to a negative (vehicle) control and/or 2) one or more test concentrations achieving a minimum fold increase in the specific endpoint over controls. • Positive—A positive result identifies a genotoxic hazard defined by the assays specific endpoint (ex. positive in vitro micronucleus). A test compound displaying a positive response has fulfilled specific evaluation criteria for the assay which may include one or both of the following: 1) a reproducible concentration dependent increase in the specific assay endpoint when compared to a negative (vehicle) control and/or 2) one or more test concentrations achieving a minimum fold increase in the specific endpoint over controls. • Equivocal—An equivocal result is reserved for situations where the test compound has been evaluated in a valid assay test or tests (i.e. assay acceptability criteria satisfactory), but fails to display a negative or positive result as defined by established evaluation criteria. This may convey the presence of a weak positive response that requires additional repeat testing or eventual confirmatory testing case-by-case. • Inconclusive—An inconclusive result is reserved for situations where the test compound has been evaluated in an invalid assay test (i.e. assay acceptability criteria unsatisfactory for technical reasons, ex. negative or positive controls fail to respond appropriately). Repeat testing is recommended in order to establish a valid assay test result.

Row | Structure (SMILES) | IC50 (PDE5 enzyme) [nM] | IC50 (PDE11 enzyme) [nM] | METHOD 7: MICRONUCLEUS ASSAY [1] | METHOD 7: MI[…] [1]
1 | CCc1nn(CCOCC(F)(F)F)c2c(Nc3cc(C)ncn3)nc(N3CCC(C(=O)O)CC3)nc12 [WO2004096810 Example 263] | 0.0197 | 316 | Positive | 
2 | Cc1ccnc(Nc2nc(N3CCC(C(=O)O)CC3)nc3c(C)nn(CCOCC(F)(F)F)c23)c1 [WO2004096810 Example 261] | 0.115 | 426 | Positive | 
3 | Cc1cc(Nc2nc(N3CCC(C(=O)O)CC3)nc3c(C)nn(CCOCC(F)(F)F)c23)ncn1 [WO2004096810 Example 262] | 0.0755 | 471 |  | Equivocal
